Values after ≈ are worked out from the molar mass of the structure shown.
What was measured:
Type in all cases: cell-based, Clostridium difficile
C. difficile I9 = test: MIC and MBC, broth microdilution; conditions: Clostridioides difficile, C. difficile I9
Procedure: (§1) Antibacterial activity of Diiodohydroxyquinoline against a wide panel of Clostridium difficile strains. […] MIC50 and MIC90 are the minimum concentration of each agent that inhibited growth of 50% and 90% of the tested isolates, respectively. The minimum bactericidal concentration (MBC) of these drugs was tested by plating 5 μL from wells with no growth onto BHIS agar plates. The MBC was categorized as the lowest concentration that reduced bacterial growth by 99.9% MIC50 and MIC90 are the minimum concentration of each agent that inhibited the growth of 50% and 90% of the tested isolates, respectively. The minimum bactericidal concentration (MBC) of these drugs was tested by plating 5 μL from wells with no growth onto BHIS agar plates. The MBC was categorized as the lowest concentration that reduced bacterial growth by 99.9% [29-31].

C. difficile I13 = test: MIC and MBC, broth microdilution; conditions: Clostridioides difficile, C. difficile I13
Procedure: as §1

C. difficile I6 [1] = test: MIC and MBC, broth microdilution; conditions: Clostridioides difficile, C. difficile I6
Procedure: as §1

C. difficile HM-745 = test: MIC and MBC, broth microdilution; conditions: Clostridioides difficile, HM745, C. difficile HM-745
Procedure: as §1

C. difficile NR-49288 = test: MIC and MBC, broth microdilution; conditions: Clostridioides difficile, NR49288, C. difficile NR-49288
Procedure: as §1

C. difficile NR-49285 = test: MIC and MBC, broth microdilution; conditions: Clostridioides difficile, NR49285, C. difficile NR-49285
Procedure: as §1

C. difficile P19 [2] = test: MIC and MBC, broth microdilution; conditions: Clostridioides difficile, C. difficile P19
Procedure: as §1

C. difficile I11 = test: MIC and MBC, broth microdilution; conditions: Clostridioides difficile, C. difficile I11
Procedure: as §1

C. difficile ATCC 1801 [3] = test: MIC and MBC, broth microdilution; conditions: Clostridioides difficile, ATCC1801, C. difficile ATCC 1801
Procedure: as §1

C. difficile P6 = test: MIC and MBC, broth microdilution; conditions: Clostridioides difficile, C. difficile P6
Procedure: as §1

C. difficile P15 = test: MIC and MBC, broth microdilution; conditions: Clostridioides difficile, C. difficile P15
Procedure: as §1

C. difficile P30 [4] = test: MIC and MBC, broth microdilution; conditions: Clostridioides difficile, C. difficile P30
Procedure: as §1

C. difficile ATCC 43255 = test: MIC and MBC, broth microdilution; conditions: Clostridioides difficile, ATCC43255, C. difficile ATCC 43255
Procedure: as §1

C. difficile P3 = test: MIC and MBC, broth microdilution; conditions: Clostridioides difficile, C. difficile P3
Procedure: as §1

C. difficile P20 = test: MIC and MBC, broth microdilution; conditions: Clostridioides difficile, C. difficile P20
Procedure: as §1

C. difficile I10 = test: MIC and MBC, broth microdilution; conditions: Clostridioides difficile, C. difficile I10
Procedure: as §1

C. difficile NR-49278 = test: MIC and MBC, broth microdilution; conditions: Clostridioides difficile, NR49278, C. difficile NR-49278
Procedure: as §1

C. difficile P5 = test: MIC and MBC, broth microdilution; conditions: Clostridioides difficile, C. difficile P5
Procedure: as §1

[5] = test system: C. difficile ATCC BAA-1870; test: Time kill kinetics assay; conditions: C. difficile ATCC BAA-1870, 5×MIC, 37° C.
Procedure: Time kill kinetics assay. In order to examine the killing kinetics of DIHQ, a time kill kinetics assay was performed against Clostridium difficile ATCC BAA 1870 and C. difficile NR-49277 as described previously. […] Aliquots were collected from each treatment after 0, 4, 6, 8, 12, and 24 hours of incubation at 37° C. and subsequently serially diluted and plated for viable CFU/mL determination.

C. difficile ATCC 9689 = test: Checkerboard assay, DIHQ with metronidazole or vancomycin
Procedure: (§2) Interactions between diiodohydroxyquinoline and the anticlostridial drugs (metronidazole and vancomycin) against Clostridium difficile clinical isolates. […] The fractional inhibitory concentration index (ΣFIC) was calculated for each interaction. Interactions where the ΣFIC index was ≤0.5 were categorized as synergistic (SYN).

C. difficile P11 = test: as above
Procedure: as §2

C. difficile I6 [6] = test: as above
Procedure: as §2

C. difficile P19 [7] = test: as above
Procedure: as §2

C. difficile ATCC 1801 [8] = test: as above
Procedure: as §2

C. difficile P30 [9] = test: as above
Procedure: as §2

Cc1ncc([N+](=O)[O-])n1CCO [Metronidazole, metronidazole]
MBC (C. difficile I9; read-out: MBC): 0.06 µg/mL (≈ 0.351 µM)
MIC (C. difficile I9; read-out: MIC): 0.06 µg/mL (≈ 0.351 µM)
MBC (C. difficile I13; read-out: MBC): 0.5 µg/mL (≈ 2.92 µM)
MIC (C. difficile I13; read-out: MIC): 0.25 µg/mL (≈ 1.46 µM)
MBC (C. difficile I6 [1]; read-out: MBC): 0.25 µg/mL (≈ 1.46 µM)
MIC (C. difficile I6 [1]; read-out: MIC): 0.25 µg/mL (≈ 1.46 µM)
MBC (C. difficile HM-745; read-out: MBC): 0.5 µg/mL (≈ 2.92 µM)
MIC (C. difficile HM-745; read-out: MIC): 0.5 µg/mL (≈ 2.92 µM)
MBC (C. difficile NR-49288; read-out: MBC): 0.25 µg/mL (≈ 1.46 µM)
MIC (C. difficile NR-49288; read-out: MIC): 0.25 µg/mL (≈ 1.46 µM)
MBC (C. difficile NR-49285; read-out: MBC): 0.5 µg/mL (≈ 2.92 µM)
MIC (C. difficile NR-49285; read-out: MIC): 0.25 µg/mL (≈ 1.46 µM)
MBC (C. difficile P19 [2]; read-out: MBC): 0.25 µg/mL (≈ 1.46 µM)
MIC (C. difficile P19 [2]; read-out: MIC): 0.25 µg/mL (≈ 1.46 µM)
MBC (C. difficile I11; read-out: MBC): 0.25 µg/mL (≈ 1.46 µM)
MIC (C. difficile I11; read-out: MIC): 0.25 µg/mL (≈ 1.46 µM)
MBC (C. difficile ATCC 1801 [3]; read-out: MBC): 0.25 µg/mL (≈ 1.46 µM)
MIC (C. difficile ATCC 1801 [3]; read-out: MIC): 0.25 µg/mL (≈ 1.46 µM)
MBC (C. difficile P6; read-out: MBC): 0.25 µg/mL (≈ 1.46 µM)
MIC (C. difficile P6; read-out: MIC): 0.25 µg/mL (≈ 1.46 µM)
MBC (C. difficile P15; read-out: MBC): 0.25 µg/mL (≈ 1.46 µM)
MIC (C. difficile P15; read-out: MIC): 0.25 µg/mL (≈ 1.46 µM)
MBC (C. difficile P30 [4]; read-out: MBC): 0.5 µg/mL (≈ 2.92 µM)
MIC (C. difficile P30 [4]; read-out: MIC): 0.5 µg/mL (≈ 2.92 µM)
MBC (C. difficile ATCC 43255; read-out: MBC): 0.25 µg/mL (≈ 1.46 µM)
MIC (C. difficile ATCC 43255; read-out: MIC): 0.25 µg/mL (≈ 1.46 µM)
MBC (C. difficile P3; read-out: MBC): 0.25 µg/mL (≈ 1.46 µM)
MIC (C. difficile P3; read-out: MIC): 0.25 µg/mL (≈ 1.46 µM)
MBC (C. difficile P20; read-out: MBC): 0.25 µg/mL (≈ 1.46 µM)
MIC (C. difficile P20; read-out: MIC): 0.25 µg/mL (≈ 1.46 µM)
MBC (C. difficile I10; read-out: MBC): 0.25 µg/mL (≈ 1.46 µM)
MIC (C. difficile I10; read-out: MIC): 0.25 µg/mL (≈ 1.46 µM)
MBC (C. difficile NR-49278; read-out: MBC): 0.5 µg/mL (≈ 2.92 µM)
MIC (C. difficile NR-49278; read-out: MIC): 0.25 µg/mL (≈ 1.46 µM)
MBC (C. difficile P5; read-out: MBC): 0.25 µg/mL (≈ 1.46 µM)
MIC (C. difficile P5; read-out: MIC): 0.25 µg/mL (≈ 1.46 µM)
time required to generate a 3-log10 reduction in CFU/mL [5]: 12 hours
MIC of metronidazole combined with DIHQ (C. difficile ATCC 9689; C. difficile ATCC 9689): 0.03 µg/mL
MIC (C. difficile ATCC 9689; Clostridioides difficile, ATCC9689, C. difficile ATCC 9689, Table 3, read-out: MIC alone): 0.25 µg/mL
MIC of metronidazole combined with DIHQ (C. difficile P11; C. difficile P11): 0.03 µg/mL
MIC (C. difficile P11; Clostridioides difficile, C. difficile P11, Table 3, read-out: MIC alone): 0.25 µg/mL
MIC of metronidazole combined with DIHQ (C. difficile I6 [6]; C. difficile I6): 0.03 µg/mL
MIC (C. difficile I6 [6]; Clostridioides difficile, C. difficile I6, Table 3, read-out: MIC alone): 0.25 µg/mL
MIC of metronidazole combined with DIHQ (C. difficile P19 [7]; C. difficile P19): 0.06 µg/mL
MIC (C. difficile P19 [7]; Clostridioides difficile, C. difficile P19, Table 3, read-out: MIC alone): 0.5 µg/mL
MIC of metronidazole combined with DIHQ (C. difficile ATCC 1801 [8]; C. difficile ATCC 1801): 0.03 µg/mL
MIC (C. difficile ATCC 1801 [8]; Clostridioides difficile, ATCC1801, C. difficile ATCC 1801, Table 3, read-out: MIC alone): 0.25 µg/mL
MIC of metronidazole combined with DIHQ (C. difficile P30 [9]; C. difficile P30): 0.06 µg/mL
MIC (C. difficile P30 [9]; Clostridioides difficile, C. difficile P30, Table 3, read-out: MIC alone): 0.5 µg/mL
